Measured values: patent US20080206792A1, “Method of identifying compounds useful to treat neuronal degenerative diseases” (University of Iowa Research Foundation, priority 2005, published 2008)
Like-named read-outs stand apart in the source and are kept apart here.

Assays:
Rac1/SOD1 binding = target: T1, Rac1/SOD1 binding (Homo sapiens, UniProt P63000); assay: In vitro pull-down of His-Rac1-GTPγS with SOD1
T1 construct: purchased Cytoskeleton Inc. (His-Rac1); Oxis Research (bovine SOD1)
Procedure: Pull-down assays with GST- and His-tagged proteins. […] The GTPases were either used directly or preloaded with either GTPγS or GDPβS and then washed. […] Samples were incubated at room temperature (RT) for 30 minutes with intermittent gentle agitation. […] The fourth wash was carried out in 50 mM Tris pH 6.8. Proteins were eluted using 20 μl 125 mM imidazole and samples were then mixed with SDS-PAGE reducing loading buffer and separated by SDS-PAGE for Western blotting.

MCF-7 cells = assay: H2HFF-BSA endosomal fluorescence after IL-1β in MCF-7 cells; format: cell-based, human
Procedure: In vivo localization of redox-active endosomes and ROS production. In vivo localization of superoxides within endosomes was performed using OxyBURST Green H2HFF-BSA (Molecular Probes). Stock solutions (1 mg/ml) were generated immediately prior to use by dissolving H2HFF-BSA in PBS under nitrogen and protected from light. Cells were incubated in the presence of 50 μg/ml OxyBurst Green H2HFF-BSA for 2 minutes at 37° C. and then stimulated by the addition of IL-1β (1 ng/ml). Cells were fixed in 4% paraformaldehyde at various times (1-10 minutes) post-stimulation and evaluated by fluorescent microscopy. Various compounds (1 mg/ml SOD or 10 μM DPI) were added at the time of IL-1β stimulation. Co-localization of H2HFF-BSA and EEA1 was performed by immunofluorescent localization in post-fixed samples using an anti-EEA1 monoclonal antibody (Transduction Laboratories) and a Texas Red-Conjugated Goat Anti-Mouse Antibody (Jackson ImmunoResearch Laboratories). In vivo localization of total cellular ROS (predominantly H2O2) was performed using H2DCFDA (Molecular Probes). […]
IL-1β induces Nox2 complex activation in early endosomes. […] By incubating cells in the presence of H2HFF-BSA, the endosomal compartment was loaded with this dye and ? detected by a green fluorescence signal. […] These findings confirmed that Nox-derived ? were the major ROS detected by H2HFF-BSA in the endosomal compartment. […]

Nox2 = Nox2 (Mus musculus, UniProt Q61093); details: PMDF endosomes with purified bovine SOD1
Excerpt: Subcellular Fractionation.
Lucigenin chemiluminescence (LCL) assay for NADPH-dependent superoxide (.O2) production.

NADPH oxidase [1] = target: T2, NADPH oxidase (Homo sapiens, UniProt P04839); assay: Lucigenin assay of NADPH-dependent superoxide production in vesicular fractions of IL-1β-stimulated MCF-7 cells
Procedure: Cytokine treatments and vesicular isolation. MCF-7 cells were treated with recombinant IL-1β at the indicated concentration for 20 minutes prior to all vesicular isolations. For endosomal loading experiments, purified bovine Cu/ZnSOD (Oxis Research) and/or catalase (Sigma-Aldrich) proteins were added to fresh media (0.1 to 1 mg protein/ml) and applied to cells 10 minutes prior to cytokine treatment in the continued presence of SOD and/or catalase. Cells were washed and scraped into ice-cold PBS. Cell pellets were then resuspended in 0.5 ml of homogenization buffer (0.25 M sucrose, 10 mM triethanolamine, 1 mM EDTA, 1 mM PMSF, and 100 ug/ml aprotinin), homogenized in a Duall tissue grinder (Duall), and centrifuged at 2000×g at 4° C. for 10 minutes. The supernatant was designated the post-nuclear supernatant (PNS). […] The PNS was then bottom loaded under two-step gradients of 24% and 20% Iodixanol in homogenization buffer. Samples were centrifuged at 30,500 rpm for 2 hours at 4° C. Fractions were collected from the top to the bottom of the centrifuge tube at 4° C. (about 300 μl per fraction) and utilized immediately for NADPH oxidase activity and immuno-isolation, or frozen for Western blot analysis.
NFκB and NADPH oxidase activity assays. […] NADPH oxidase activities were analyzed by measuring the rate of ? generation using a chemiluminescent, lucigenin-based system (Li et al., 2001). Prior to the initiation of the assay, 5 μg of vesicular proteins were combined with 5 μM lucigenin (Sigma-Aldrich) in PBS and incubated in darkness at room temperature for 10 minutes. The reaction was initiated by the addition of 100 μM of NADPH (Sigma-Aldrich) and changes in luminescence were measured over the course of 3 minutes (5 readings/second). The slope of the luminescence curve (relative light units [RLU] per minute) (r>0.95) was used to calculate the rate of ? formation as an index of NADPH oxidase activity (RLU/min μg protein).

Nox = format: biochemical, mouse
Procedure: Lucigenin chemiluminescence (LCL) assay for NADPH-dependent superoxide (.O2) production. NADPH oxidase activities were analyzed by measuring the rate of ? generation using a chemiluminescent, lucigenin-based system (Li et al., 1998). 5 μM lucigenin in 50 μl of each subcellular fractions was incubated in the dark at room temperature for 15 minutes. LCL was measured using a single-tube Luminometer TD20-20 (Turner Designs Sunnyvale, Calif.). The reaction was initiated by the addition β-NADPH to a final concentration of 100 μM with or without DPI and/or SOD as indicated. LCL was measured over the course of 5 minutes. The initial slope of the luminescence curve (RLU/minute) was used to calculate the rate of luminescence product formation and compared between samples as an index of NADPH oxidase activity.

NADPH oxidase [2] = assay: Nox activity (lucigenin, DHE) in lumbar spinal cord of end-stage G93A-SOD1 mice after 5 days of apocynin; format: in vivo, mouse; details: terminal stage ALS mice, apocynin 300 mg/kg in water for five days
Excerpt: (§1) FIG. 17. […] A) Survival curve for mice treated with different doses of apocynin in their water beginning at 14 days of age. Number of mice (N) for each treatment group is shown along with median survival times in days. B) Survival data of male and female mice for each given dose of apocynin. Mice treated for eye infections with antibiotics are marked as boxes. Those mice that were unsuccessfully treated and died from eye infections are denoted by an X within the box. Circles denote animals that never contracted eye infection. The number of mice in each group (N) is given above the mean survival in days for each dose of apocynin. C) Relationship between age of disease onset (as determined by a 5% weight loss during a one week period) and apocynin dosage. D) Survival Index was measured as the time from disease onset until the animal reached clinical death for each of the given doses of apocynin. E) NADPH-dependent superoxide production (Nox activity) was measured in total membranes of lumbar spinal cord from end-stage G93A-SOD1 transgenic mice (about 120 days of age) either untreated or treated with apocynin (300 mg/kg) for 5 days prior to analysis (N=5 in each group). F) Dihydroethidium fluorescence in lumbar spinal cord of the same mice shown in (E).

SOD1-G93A mice = assay: Survival and disease progression of G93A-SOD1 transgenic (ALS) mice given apocynin in drinking water; format: in vivo, mouse
Excerpt: FIG. 14. […] D) Survival Index is the time between disease onset and clinical death and is a marker of disease progression.
as §1
However, it is currently unclear if other Rac-regulated Nox complexes (such as Nox1 and Nox3) might also contribute to altered ROS production in ALS. To test the therapeutic potential of direct Nox inhibition on the pathoprogression of ALS disease, apocynin in vivo inhibition studies were performed in G93A-ALS mice.

[3] = format: in vivo; details: non-ALS mice treated with apocynin
MO59J (glial) cells = assay: NADPH-dependent superoxide production and cell death in glial cells infected with adenovirus expressing mutant SOD1; format: cell-based; details: apocynin 100 μM for 72 hours
Excerpt: (§2) FIG. 15. […] A) NADPH-dependent superoxide production in total endomembranes from brain, spinal cord, and liver of non-transgenic or transgenic mice overexpressing WT-SOD1 or G93A-SOD1 (N=3 animals in each group). B) Dihydroethidium (DHE) fluorescent detection of superoxide in lumbar spinal cord sections from 120 day old non-transgenic or transgenic mice overexpressing WT-SOD1 or G93A-SOD1. DAP1 staining demarcates nuclei in lower panels. C, D) Measure of superoxide production (C) or trypan-blue exclusion as a measure of cell death (D) in SH-SY (neuronal) or MO59J (glial) cells infected with adenoviral vectors expressing LacZ, WT-SOD1, or the indicated mutant SOD1. E) Superoxide production and percentage of cell death in SH-SY or MO59J cells following infection with the indicated adenoviral vectors followed by treatment with or without apocynin (100 μM) for 72 hours. F) Rac-GTP activation as determined by association with GST-Pak1 using spinal cord cell lysates from non-transgenic (control) or G93A-SOD1 transgenic mice at 120 days of age. Controls include lysate from control mice incubated with GTPγS (+) or GDPβS (−) prior to performing Pak1 pull-down assays. […]

SH-SY (neuronal) cells = assay: NADPH-dependent superoxide production and cell death in neuronal cells infected with adenovirus expressing mutant SOD1; format: cell-based; details: apocynin 100 μM for 72 hours
Excerpt: as §2

NADPH oxidase [4] = target: T2, NADPH oxidase; assay: ESR (DMPO adduct) of NADPH-dependent superoxide by IL-1β-activated endosomes; format: biochemical; set-up: enhanced recruitment of endogenous Nox2 to endosomes only following IL-1β stimulation; endogenous in cells; host or cells: MCF-7 cells, IL-1β-stimulated, iodixanol vesicular fractions; details: endosomal loading prior to vesicular isolation

Question: Which “DTT concentration reversing H2O2-mediated inhibition of Rac1/SOD1 binding” value (Rac1/SOD1 binding; Rac1 oxidized with 300 pM H2O2) does the source give for `O[C@H](CS)[C@H](O)CS` (racemic) [DTT, dithiothreitol] here?
Answer: 50 to 300 µM

Question: With `c1ccc2c(c1)[I+]c1ccccc1-2` [DPI, diphenyleneiodonium chloride] as the compound, how does the “IL-1β-induced H2HFF-BSA fluorescence” value (MCF-7 cells; 10 μM DPI added at IL-1β stimulation) read?
Answer: significantly inhibited

Question: What about the “SOD1-mediated enhancement in endosomal NADPH-dependent superoxide” value (Nox2) of the same compound?
Answer: sensitive

Question: And the “NADPH-dependent superoxide production in peak vesicular fractions” value (NADPH oxidase [1])?
Answer: sensitive

Question: And the NADPH-dependent superoxide production (Nox)?
Answer: inhibited

Question: With `OO` [H2O2, hydrogen peroxide] as the compound, how does the “Lowest H2O2 concentration causing a significant decrease in the binding affinity of Rac1 for SOD1” value (Rac1/SOD1 binding; Rac1 reduced with DTT, preloaded with GTPγS) read?
Answer: 50 pM

Question: Which “Nox-derived superoxide production in vivo (spinal cord, lucigenin and DHE assays)” value (NADPH oxidase [2]) does the source give for `COc1cc(C(C)=O)ccc1O` [apocynin, 4-Hydroxy-3-methoxyacetophenone] here?
Answer: effectively inhibited

Question: And the “Number of motor neurons in the lumbar spinal cord” value (SOD1-G93A mice; 300 mg/kg, at 120 days)?
Answer: significantly increased

Question: What about the Probability of survival (SOD1-G93A mice; SOD1-G93A mice, apocynin 30 mg/Kg, nontreated 125 days, p<0.0001) of the same compound?
Answer: 185 days

Question: What about the Gait analysis (SOD1-G93A mice; apocynin 30 mg/Kg, at 114 days of age, untreated mice impaired gait) of the same compound?
Answer: normal gait

Question: And the “Survival Index (time between disease onset and clinical death)” value (SOD1-G93A mice; apocynin 30 mg/Kg, n=6, untreated 11 days)?
Answer: 32 days

Question: What about the “Survival of G93A-SOD1 mice, dose dependence” value (SOD1-G93A mice; apocynin in drinking water from 2 weeks of age) of the same compound?
Answer: prolonged survival of G93A-SOD1 mice in a dose-dependent fashion

Question: And the “Average age of disease onset” value (SOD1-G93A mice; first observation of hind limb weakness, apocynin 30 mg/Kg, n=6, untreated 117.5 days)?
Answer: 156.5 days

Question: And the 50% survival time (SOD1-G93A mice; highest dose 300 mg/kg in drinking water from 2 weeks of age, increased from 125 days)?
Answer: 239 days

Question: And the “Life expectancy and disease onset” value (SOD1-G93A mice; lowest tested dose)?
Answer: prolong life expectancy and delay disease onset

Question: And the “Age of onset of disease and survival index versus dose” value (SOD1-G93A mice; onset judged by 5% weight loss and gait)?
Answer: clear dose response

Question: What about the Eye disease [3] of the same compound?
Answer: did not develop eye disease

Question: What about the Cell viability (MO59J (glial) cells) of the same compound?
Answer: increase in cell viability

Question: And the “SOD1 mutant facilitated NADPH-dependent superoxide production” value (MO59J (glial) cells)?
Answer: abrogated

Question: And the Nox activity (SH-SY (neuronal) cells)?
Answer: could not inhibit

Question: What about the “Protection from mutant SOD1-mediated cellular injury” value (SH-SY (neuronal) cells) of the same compound?
Answer: nor did it protect

Question: With `C=C(C)[C@H]1Cc2c(ccc3c2O[C@@H]2COc4cc(OC)c(OC)cc4[C@@H]2C3=O)O1` [rotenone] as the compound, how does the “NADPH-dependent superoxide production in peak vesicular fractions” value (NADPH oxidase [1]; IL-1β-stimulated MCF-7 cells) read?
Answer: not

Question: Which results are given for “Cu/ZnSOD: purified bovine Cu/ZnSOD (Oxis Research) added to media for endosomal loading”?
Answer: IL-1β-induced H2HFF-BSA fluorescence (MCF-7 cells; purified Cu/ZnSOD protein loaded into endosomal compartment, 1 mg/ml): significantly inhibited; DMPO adduct formation (ESR) (NADPH oxidase [4]): completely inhibited

Question: With antimycin A as the compound, how does the “NADPH-dependent superoxide production in peak vesicular fractions” value (NADPH oxidase [1]; IL-1β-stimulated MCF-7 cells) read?
Answer: not

Question: Which “DMPO adduct formation (ESR)” value (NADPH oxidase [4]) does the source give for catalase here?
Answer: not
